Literature values in patent publication US20230104487A1, “11-(4-CHLOROPHENYL)-4-(2,3-DIHYDRO-1H-INDOLE-1-CARBONYL)-3,11-DIMETHYL-5,10,DIOXATRICYCLO[7.4.0.0,2,6,]TRIDECA-1,3,6,8-TETRAEN-13-ONE AND DERIVATIVES AS DESTABILIZER OF CRY1 FOR THE TREATMENT OF CIRCADIAN RHYTHM ASSOCIATED DISEASES AND DISORDERS” (KOC UNIVERSITESI, priority 2019, published 2023).

What was measured:
[1] = test system: CRYs; conditions: Hirota et al., 2012; cited from earlier work
[2] = test system: gluconeogenesis; conditions: Hirota et al., 2012; cited from earlier work
[3] = test system: REV-ERB; conditions: Solt et al., 2012; cited from earlier work

Compound | effect on stability of the CRYs [1] | effect on gluconeogenesis [2] | effect on REV-ERB's repressor function [3]
CS(=O)(=O)N(Cc1ccco1)CC(O)Cn1c2ccccc2c2ccccc21 (stereo not drawn) [KL001] | increases stability of the CRYs | suppresses the gluconeogenesis | –
CC(C)(C)OC(=O)CN(Cc1ccc(Cl)cc1)Cc1ccc([N+](=O)[O-])s1 [GSK4112] | – | – | enhance REV-ERB's repressor function toward Bmal1 transcription
